One block for each compound: values may come before it.
How the values were obtained:
[1] = target: T1, AspRedAm (Aspergillus oryzae, UniProt Q2TW47); assay: reductive amination, HPLC or LC-MS conversion; assay type: biochemical; conditions: 5 mM each, NADP+/GDH/glucose recycling, pH 7.0
T1 construct: gene AO090010000708; N-terminal His tag, expressed in E. coli BL21(DE3), Ni-NTA purified; dimer
T1 sequence (Q2TW47 1-295): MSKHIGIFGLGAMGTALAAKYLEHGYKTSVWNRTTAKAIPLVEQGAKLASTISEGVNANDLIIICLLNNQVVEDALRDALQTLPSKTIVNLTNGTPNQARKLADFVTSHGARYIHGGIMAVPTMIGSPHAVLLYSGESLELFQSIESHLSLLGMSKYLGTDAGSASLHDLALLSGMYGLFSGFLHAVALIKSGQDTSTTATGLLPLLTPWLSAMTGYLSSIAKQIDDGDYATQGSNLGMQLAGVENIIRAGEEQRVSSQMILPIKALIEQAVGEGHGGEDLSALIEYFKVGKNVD

[2] = target: T2, IR-G02 (Streptomyces albidoflavus, UniProt Z9MF94CC36); assay: X-ray crystallography; assay type: binding; conditions: co-crystallised with 10 eq NADP+, pH 7.5, 18 °C
T2 construct: N-terminal His6 tag, expressed in E. coli BL21(DE3), Ni-NTA and SEC purified; homodimer with active site at the interface
T2 sequence (Z9MF94CC36 21-319): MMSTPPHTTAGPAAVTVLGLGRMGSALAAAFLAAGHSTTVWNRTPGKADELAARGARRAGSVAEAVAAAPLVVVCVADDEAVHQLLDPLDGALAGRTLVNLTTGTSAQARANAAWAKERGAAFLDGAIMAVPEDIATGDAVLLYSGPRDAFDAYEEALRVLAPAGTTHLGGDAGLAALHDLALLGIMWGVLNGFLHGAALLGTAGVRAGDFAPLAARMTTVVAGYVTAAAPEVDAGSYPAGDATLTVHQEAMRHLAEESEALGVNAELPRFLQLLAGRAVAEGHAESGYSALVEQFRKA

[3] = target: IR-G02 (imine reductase from Streptomyces albidoflavus) (Streptomyces albidoflavus); assay: crystal structure; apo IR-G02; sitting-drop vapour diffusion at 18 °C; 0.2 M ammonium acetate, 0.1 M Bis-Tris 5.5, 25 % w/v PEG 3350; protein 20 mg ml^-1

Compound: NC1CC1 [A, cyclopropylamine]
conversion ([1]; amine donor with cyclohexanone): > 90%

X-ray crystallography [2]: NADP^+ complex of IR-G02 (PDB ID: 7XR5)
Compound: NC(=O)c1ccc[n+]([C@@H]2O[C@H](COP(=O)(O)OP(=O)(O)OC[C@H]3O[C@@H](n4cnc5c(N)ncnc54)[C@H](OP(=O)(O)O)[C@@H]3O)[C@@H](O)[C@H]2O)c1 [NADP^+]

Compound: O=C1CCCCC1 [compound 1, cyclohexanone]
conversion ([1]; carbonyl donor with cyclopropylamine): > 90%

stoichiometry N [3]: 2
Compound: IR-G02 (imine reductase from Streptomyces albidoflavus) (enzyme)

Reference: PMC9814587, “Actinomycetes-derived imine reductases with a preference towards bulky amine substrates” (Communications Chemistry, 2022)
